From ChEMBL document CHEMBL5614394, “Novel pleuromutilin derivatives conjugated with phenyl-sulfide and boron-containing moieties as potent antibacterial agents against antibiotic-resistant bacteria” (Eur J Med Chem, 2024)
In brackets after ≈: the same amount, converted by molar mass.

What was measured:
Type in all cases: functional
Staphylococcus aureus [1] = experiment: Antibacterial activity against Staphylococcus aureus ATCC 29213 assessed as inhibition of visible growth of bacteria incubated for 24 hrs by CLSI protocol based broth-dilution method
[2] = system: Staphylococcus epidermidis; experiment: Antibacterial activity against Staphylococcus epidermidis ATCC 12228 assessed as inhibition of visible growth of bacteria incubated for 24 hrs by CLSI protocol based broth-dilution method
Staphylococcus aureus [3] = experiment: Antibacterial activity against methicillin-resistant Staphylococcus aureus J1 harboring (lsa(E)+) genotype assessed as inhibition of visible growth of bacteria incubated for 24 hrs by CLSI protocol based broth-dilution method
Staphylococcus simulans = experiment: Antibacterial activity against pleuromutilin-resistant Staphylococcus simulans isolate 55-1 harboring cfr+ genotype assessed as inhibition of visible growth of bacteria incubated for 24 hrs by CLSI protocol based broth-dilution method
Enterococcus faecium [4] = experiment: Antibacterial activity against pleuromutilin-resistant Enterococcus faecium 18SC29-2 harboring (lsa(E)-) genotype assessed as inhibition of visible growth of bacteria incubated for 24 hrs by CLSI protocol based broth-dilution method
Enterococcus faecium [5] = experiment: Antibacterial activity against pleuromutilin-resistant Enterococcus faecium 18FJZ1-1 harboring (lsa(E)+) genotype assessed as inhibition of visible growth of bacteria incubated for 24 hrs by CLSI protocol based broth-dilution method

| Compound | MIC (Staphylococcus aureus [1]) | MIC [2] | MIC (Staphylococcus aureus [3]) | MIC (Staphylococcus simulans) | MIC (Enterococcus faecium [4]) | MIC (Enterococcus faecium [5]) |
| --- | --- | --- | --- | --- | --- | --- |
| C=C[C@]1(C)C[C@@H](OC(=O)CSc2ccc(NC(=O)c3ccc(F)c(B(O)O)c3)cc2)[C@]2(C)[C@H](C)CC[C@]3(CCC(=O)[C@H]32)[C@@H](C)[C@@H]1O | 0.063 µg/mL (≈ 0.0967 µM) | 16 µg/mL (≈ 24.6 µM) |  |  |  |  |
| C=C[C@]1(C)C[C@@H](OC(=O)CSc2cccc(NC(=O)c3ccc(B(O)O)cc3F)c2)[C@]2(C)[C@H](C)CC[C@]3(CCC(=O)[C@H]32)[C@@H](C)[C@@H]1O | 0.063 µg/mL (≈ 0.0967 µM) | 0.063 µg/mL (≈ 0.0967 µM) |  |  |  |  |
| C=C[C@]1(C)C[C@@H](OC(=O)CSc2cccc(NC(=O)c3cc(B(O)O)cc(C(F)(F)F)c3)c2)[C@]2(C)[C@H](C)CC[C@]3(CCC(=O)[C@H]32)[C@@H](C)[C@@H]1O | 0.063 µg/mL (≈ 0.0898 µM) | 0.5 µg/mL (≈ 0.713 µM) |  |  |  |  |
| C=C[C@]1(C)C[C@@H](OC(=O)CSc2cccc(NC(=O)c3cc(C)cc(B(O)O)c3)c2)[C@]2(C)[C@H](C)CC[C@]3(CCC(=O)[C@H]32)[C@@H](C)[C@@H]1O | 0.031 µg/mL (≈ 0.0479 µM) | 0.031 µg/mL (≈ 0.0479 µM) |  |  |  |  |
| C=C[C@]1(C)C[C@@H](OC(=O)CSc2cccc(NC(=O)c3ccc(B(O)O)c([N+](=O)[O-])c3)c2)[C@]2(C)[C@H](C)CC[C@]3(CCC(=O)[C@H]32)[C@@H](C)[C@@H]1O | 0.063 µg/mL (≈ 0.0928 µM) | 0.063 µg/mL (≈ 0.0928 µM) |  |  |  |  |
| C=C[C@]1(C)C[C@@H](OC(=O)CS[C@@H]2C[C@H]3CC[C@@H](C2)N3C)[C@]2(C)[C@H](C)CC[C@]3(CCC(=O)[C@H]32)[C@@H](C)[C@@H]1O [RETAPAMULIN] |  |  | > 32 µg/mL | 32 µg/mL (≈ 61.8 µM) | 0.125 µg/mL (≈ 0.241 µM) | 32 µg/mL (≈ 61.8 µM) |
| C=C[C@]1(C)C[C@@H](OC(=O)CSc2ccc(NC(=O)c3ccc(B(O)O)cc3F)cc2)[C@]2(C)[C@H](C)CC[C@]3(CCC(=O)[C@H]32)[C@@H](C)[C@@H]1O | 0.063 µg/mL (≈ 0.0967 µM) | 4 µg/mL (≈ 6.14 µM) |  |  |  |  |
| 22-(3-(((5-Borono-3-pyridinyl)carbonyl)amino)phenylsulfanyl)-22-deoxypleuromutilin | 0.25 µg/mL | 0.25 µg/mL |  |  |  |  |
| C=C[C@]1(C)C[C@@H](OC(=O)CSc2cccc(NCc3ccccc3B(O)O)c2)[C@]2(C)[C@H](C)CC[C@]3(CCC(=O)[C@H]32)[C@@H](C)[C@@H]1O | 0.031 µg/mL (≈ 0.05 µM) | 0.031 µg/mL (≈ 0.05 µM) |  |  |  |  |
| C=C[C@]1(C)C[C@@H](OC(=O)CSc2cccc(NCc3ccc(B(O)O)cc3)c2)[C@]2(C)[C@H](C)CC[C@]3(CCC(=O)[C@H]32)[C@@H](C)[C@@H]1O | 0.063 µg/mL (≈ 0.102 µM) | 0.063 µg/mL (≈ 0.102 µM) |  |  |  |  |
| C=C[C@]1(C)C[C@@H](OC(=O)CSc2cccc(NC(=O)c3ccc(OC)c(B(O)O)c3)c2)[C@]2(C)[C@H](C)CC[C@]3(CCC(=O)[C@H]32)[C@@H](C)[C@@H]1O | 0.031 µg/mL (≈ 0.0467 µM) | 0.031 µg/mL (≈ 0.0467 µM) |  |  |  |  |
| C=C[C@]1(C)C[C@@H](OC(=O)CSCCN(CC)CC)[C@]2(C)[C@H](C)CC[C@]3(CCC(=O)[C@H]32)[C@@H](C)[C@@H]1O [TIAMULIN] |  |  | > 32 µg/mL | > 32 µg/mL | 2 µg/mL (≈ 4.05 µM) | > 32 µg/mL |
| C=C[C@]1(C)C[C@@H](OC(=O)CSc2cccc(NC(=O)c3ccc(B(O)O)c(Cl)c3)c2)[C@]2(C)[C@H](C)CC[C@]3(CCC(=O)[C@H]32)[C@@H](C)[C@@H]1O | 0.063 µg/mL (≈ 0.0943 µM) | 1 µg/mL (≈ 1.5 µM) |  |  |  |  |
| C=C[C@]1(C)C[C@@H](OC(=O)CSc2cccc(NC(=O)c3ccc(B(O)O)cc3[N+](=O)[O-])c2)[C@]2(C)[C@H](C)CC[C@]3(CCC(=O)[C@H]32)[C@@H](C)[C@@H]1O | 0.25 µg/mL (≈ 0.368 µM) | 0.25 µg/mL (≈ 0.368 µM) |  |  |  |  |
| C=C[C@]1(C)C[C@@H](OC(=O)CSc2cccc(NC(=O)c3ccc(F)c(B(O)O)c3)c2)[C@]2(C)[C@H](C)CC[C@]3(CCC(=O)[C@H]32)[C@@H](C)[C@@H]1O | 0.063 µg/mL (≈ 0.0967 µM) | 16 µg/mL (≈ 24.6 µM) |  |  |  |  |
| C=C[C@]1(C)C[C@@H](OC(=O)CSc2cccc(NC(=O)c3cccc(B(O)O)c3)c2)[C@]2(C)[C@H](C)CC[C@]3(CCC(=O)[C@H]32)[C@@H](C)[C@@H]1O | 0.063 µg/mL (≈ 0.0994 µM) | 0.063 µg/mL (≈ 0.0994 µM) |  |  |  |  |
| C=C[C@]1(C)C[C@@H](OC(=O)CSc2cccc(NC(=O)c3ccc(B(O)O)s3)c2)[C@]2(C)[C@H](C)CC[C@]3(CCC(=O)[C@H]32)[C@@H](C)[C@@H]1O | 0.063 µg/mL (≈ 0.0985 µM) | 0.063 µg/mL (≈ 0.0985 µM) |  |  |  |  |
| C=C[C@]1(C)C[C@@H](OC(=O)CSc2cccc(NCc3cccc(B(O)O)c3)c2)[C@]2(C)[C@H](C)CC[C@]3(CCC(=O)[C@H]32)[C@@H](C)[C@@H]1O | 0.063 µg/mL (≈ 0.102 µM) | 0.125 µg/mL (≈ 0.202 µM) |  |  |  |  |
| C=C[C@]1(C)C[C@@H](OC(=O)CSc2ccc(NC(=O)c3ccc(B(O)O)c(F)c3)cc2)[C@]2(C)[C@H](C)CC[C@]3(CCC(=O)[C@H]32)[C@@H](C)[C@@H]1O | 0.063 µg/mL (≈ 0.0967 µM) | 16 µg/mL (≈ 24.6 µM) |  |  |  |  |
| C=C[C@]1(C)C[C@@H](OC(=O)CSc2cccc(NC(=O)c3cc(OC)cc(B(O)O)c3)c2)[C@]2(C)[C@H](C)CC[C@]3(CCC(=O)[C@H]32)[C@@H](C)[C@@H]1O | 0.031 µg/mL (≈ 0.0467 µM) | 0.031 µg/mL (≈ 0.0467 µM) |  |  |  |  |
| C=C[C@]1(C)C[C@@H](OC(=O)CSc2cccc(NC(=O)c3ccc(B(O)O)c(F)c3F)c2)[C@]2(C)[C@H](C)CC[C@]3(CCC(=O)[C@H]32)[C@@H](C)[C@@H]1O | 0.031 µg/mL (≈ 0.0463 µM) | 0.031 µg/mL (≈ 0.0463 µM) |  |  |  |  |
